Experimental findings from patent US11339130B1 (Blade Therapeutics, Inc., priority 2016, dated 2022) are described below.

Like-named read-outs stand apart in the source and are kept apart here.

Common to all, as to type: biochemical
One assay deals with T1, Human Calpain 1/NS1 (Homo sapiens, UniProt P07384).
T1 sequence (P07384 1-714): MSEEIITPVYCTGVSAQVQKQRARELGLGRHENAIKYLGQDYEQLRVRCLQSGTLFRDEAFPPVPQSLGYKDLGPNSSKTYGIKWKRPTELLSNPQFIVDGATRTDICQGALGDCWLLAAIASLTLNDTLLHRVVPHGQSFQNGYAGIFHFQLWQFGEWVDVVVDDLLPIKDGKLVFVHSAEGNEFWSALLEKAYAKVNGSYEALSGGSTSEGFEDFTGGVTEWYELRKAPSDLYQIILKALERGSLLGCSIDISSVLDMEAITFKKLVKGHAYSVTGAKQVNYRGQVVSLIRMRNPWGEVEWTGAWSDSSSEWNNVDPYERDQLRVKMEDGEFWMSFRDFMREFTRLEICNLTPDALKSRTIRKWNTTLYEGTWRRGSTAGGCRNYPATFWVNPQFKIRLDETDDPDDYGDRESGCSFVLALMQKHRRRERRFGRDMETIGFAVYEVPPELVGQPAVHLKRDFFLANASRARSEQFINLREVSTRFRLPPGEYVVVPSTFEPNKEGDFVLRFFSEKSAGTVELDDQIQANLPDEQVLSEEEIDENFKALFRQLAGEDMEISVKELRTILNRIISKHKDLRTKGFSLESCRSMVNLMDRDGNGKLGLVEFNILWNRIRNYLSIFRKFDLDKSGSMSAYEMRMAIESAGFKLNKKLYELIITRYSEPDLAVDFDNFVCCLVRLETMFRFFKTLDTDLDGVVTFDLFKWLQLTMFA
T1 sequence (P04632 1-268 partner): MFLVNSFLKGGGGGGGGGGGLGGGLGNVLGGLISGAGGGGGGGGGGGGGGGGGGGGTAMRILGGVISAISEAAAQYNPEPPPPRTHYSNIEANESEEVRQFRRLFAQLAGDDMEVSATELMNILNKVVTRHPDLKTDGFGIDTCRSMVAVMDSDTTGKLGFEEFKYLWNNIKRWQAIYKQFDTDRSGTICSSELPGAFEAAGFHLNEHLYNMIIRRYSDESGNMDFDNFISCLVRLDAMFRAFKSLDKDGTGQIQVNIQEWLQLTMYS
Nature of the assay: Calpain inhibition continuous fluorescence (FRET) assay, Human Calpain 1/NS1. The note with it: read-out: Human Calpain 1/NS1 IC50. On the procedure:
(§1) Calpain 1, 2, and 9 activity and inhibition thereof was assessed by means of a continuous fluorescence assay. The SensoLyte 520 Calpain substrate (Anaspec Inc) was optimized for detecting calpain activity. This substrate contains an internally quenched 5-FAM/QXL™ 520 FRET pair. Calpains 1, 2, and 9 cleave the FRET substrate into two separate fragments resulting in an increase of 5-FAM fluorescence that is proportional to calpain activity
(§2) Assays were typically setup in black 384-well plates using automated liquid handling as follows. Calpain assay base buffer typically contains 50 mM Tris, pH 7.5, 100 mM NaCl and 1 mM DTT. Inhibitors were serially diluted in DMSO and used to setup 2× mixtures with calpains in the aforementioned buffer. After incubation at ambient temperature (25C), the reaction was initiated by adding a 2× mix of the fluorescent peptide substrate and CaCl2) (required for in-situ calpain activation) in the same buffer. Reaction progress curve data were typically collected for 10 min using excitation/emission wavelengths of 490 nm/520 nm on SpectraMax i3× or the FLIPR-Tetra plate readers (Molecular Devices Inc). Reaction rates were calculated from progress curve slopes typically over 1-5 min. Dose response curves (rate vs. log inhibitor concentration) were typically fit to a 4-parameter logistic function to extract IC50 values.

The next assay deals with T2, Human Calpain 9/NS1 (Homo sapiens, UniProt O14815).
T2 sequence (O14815 1-690): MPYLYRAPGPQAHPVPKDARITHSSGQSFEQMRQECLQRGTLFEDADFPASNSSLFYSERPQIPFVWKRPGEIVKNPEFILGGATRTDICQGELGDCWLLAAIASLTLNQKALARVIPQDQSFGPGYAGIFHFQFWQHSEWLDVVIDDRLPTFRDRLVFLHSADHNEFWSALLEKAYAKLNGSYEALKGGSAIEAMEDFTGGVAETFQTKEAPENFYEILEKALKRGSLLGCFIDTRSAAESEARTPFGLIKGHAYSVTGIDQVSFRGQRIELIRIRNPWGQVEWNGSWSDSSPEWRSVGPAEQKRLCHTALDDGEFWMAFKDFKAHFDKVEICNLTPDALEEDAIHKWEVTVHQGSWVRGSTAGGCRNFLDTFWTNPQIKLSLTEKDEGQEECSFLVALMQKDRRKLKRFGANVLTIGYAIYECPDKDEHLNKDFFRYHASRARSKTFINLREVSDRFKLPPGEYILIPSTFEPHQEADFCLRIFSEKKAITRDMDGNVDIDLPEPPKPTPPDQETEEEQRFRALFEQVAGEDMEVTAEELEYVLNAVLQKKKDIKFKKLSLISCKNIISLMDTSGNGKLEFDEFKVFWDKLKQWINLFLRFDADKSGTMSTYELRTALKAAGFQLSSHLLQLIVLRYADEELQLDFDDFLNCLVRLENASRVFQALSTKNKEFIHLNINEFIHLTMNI
T2 sequence (P04632 1-268 partner): T1 sequence (P04632 1-268 partner)
Nature of the assay: Calpain inhibition continuous fluorescence (FRET) assay, Human Calpain 9/NS1. The note with it: read-out: Human Calpain 9/NS1 IC50. On the procedure: as §1, §2

In another assay the target is T3, Human Calpain 2/NS1 (Homo sapiens, UniProt P17655).
T3 sequence (P17655 1-700): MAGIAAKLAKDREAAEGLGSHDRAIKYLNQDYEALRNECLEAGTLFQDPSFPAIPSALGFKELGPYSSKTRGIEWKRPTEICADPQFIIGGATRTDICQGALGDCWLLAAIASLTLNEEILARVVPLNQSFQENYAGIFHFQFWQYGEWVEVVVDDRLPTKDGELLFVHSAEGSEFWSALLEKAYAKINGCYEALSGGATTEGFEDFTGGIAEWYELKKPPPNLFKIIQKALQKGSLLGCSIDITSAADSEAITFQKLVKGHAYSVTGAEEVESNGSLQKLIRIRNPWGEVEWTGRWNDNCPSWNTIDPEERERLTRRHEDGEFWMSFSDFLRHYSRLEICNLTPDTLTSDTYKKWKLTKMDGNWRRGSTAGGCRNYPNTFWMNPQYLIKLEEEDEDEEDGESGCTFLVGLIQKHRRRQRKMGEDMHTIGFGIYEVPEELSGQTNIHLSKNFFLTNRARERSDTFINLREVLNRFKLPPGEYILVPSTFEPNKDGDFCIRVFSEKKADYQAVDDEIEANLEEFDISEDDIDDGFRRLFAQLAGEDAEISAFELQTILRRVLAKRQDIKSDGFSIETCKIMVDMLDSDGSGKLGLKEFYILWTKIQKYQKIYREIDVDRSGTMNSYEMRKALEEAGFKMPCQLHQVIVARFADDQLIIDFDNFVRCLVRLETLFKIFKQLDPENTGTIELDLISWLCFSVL
T3 sequence (P04632 1-268 partner): T1 sequence (P04632 1-268 partner)
Put plainly: Calpain inhibition continuous fluorescence (FRET) assay, Human Calpain 2/NS1. The note with it: read-out: Human Calpain 2/NS1 IC50. How it is done: as §1, §2

For `Cn1cc(C(=O)N[C@@H](Cc2ccccc2)C(=O)C(N)=O)c(-c2ccccn2)n1` [Compound 169, (S)—N-(4-amino-3,4-dioxo-1-phenylbutan-2-yl)-1-methyl-3-(pyridin-2-yl)-1H-pyrazole-4-carboxamide], the IC50 at Human Calpain 1/NS1 (Column A), on Human Calpain 9/NS1 (Column C) and at Human Calpain 2/NS1 (Column B) was less than 3 µM each time.

On to `Cc1nsc(-c2ccccc2)c1C(=O)N[C@@H](Cc1ccccc1)C(=O)C(=O)NC1CC1` [Compound 116, (S)—N-(4-(cyclopropylamino)-3,4-dioxo-1-phenylbutan-2-yl)-3-methyl-5-phenylisothiazole-4-carboxamide], for which the IC50 on Human Calpain 1/NS1 (Column A) is less than 3 µM; on Human Calpain 9/NS1 (Column C), greater than 10 µM; on Human Calpain 2/NS1 (Column B) it was 3 to 10 µM.

As to `O=C(NC1CC1)C(=O)[C@H](Cc1ccccc1)NC(=O)c1nn[nH]c1-c1ccccc1` [Compound 204, (S)—N-(4-(cyclopropylamino)-3,4-dioxo-1-phenylbutan-2-yl)-5-phenyl-1H-1,2,3-triazole-4-carboxamide], the IC50 at Human Calpain 1/NS1 (Column A), at Human Calpain 9/NS1 (Column C) and at Human Calpain 2/NS1 (Column B) was greater than 10 µM throughout.

On to `NC(=O)C(=O)[C@H](Cc1ccccc1)NC(=O)c1nn[nH]c1-c1ccccc1` [Compound 262, (S)—N-(4-amino-3,4-dioxo-1-phenylbutan-2-yl)-5-phenyl-1H-1,2,3-triazole-4-carboxamide], for which the IC50 on Human Calpain 1/NS1 (Column A) was 3 to 10 µM; at Human Calpain 9/NS1 (Column C), less than 3 µM; on Human Calpain 2/NS1 (Column B), 3 to 10 µM.

As for `Cn1cc(C(=O)NC(Cc2ccccc2)C(=O)C(N)=O)c(-c2ccc(C(F)(F)F)nc2)n1` (stereo not drawn) [Compound 315, N-(4-amino-3,4-dioxo-1-phenylbutan-2-yl)-1-methyl-3-(6-(trifluoromethyl)pyridin-3-yl)-1H-pyrazole-4-carboxamide], the results for the IC50 at Human Calpain 1/NS1, on Human Calpain 9/NS1 and on Human Calpain 2/NS1 were 3 to 10 µM, less than 3 µM and 3 to 10 µM, respectively.

Turning to `O=C[C@H](Cc1ccccc1)NC(=O)c1cncn1-c1cc(-c2ncco2)ccn1` [Compound 110, (S)-1-(4-(oxazol-2-yl)pyridin-2-yl)-N-(1-oxo-3-phenylpropan-2-yl)-1H-imidazole-5-carboxamide], the IC50 at Human Calpain 1/NS1 (Column A) is less than 3 µM; at Human Calpain 9/NS1 (Column C), 3 to 10 µM; at Human Calpain 2/NS1 (Column B) it was less than 3 µM.

Consider `O=C(NC1CC1)C(=O)[C@H](Cc1ccccc1)NC(=O)c1cncn1-c1ncc(-c2ccccc2)cn1` [Compound 76, (S)—N-(4-(cyclopropylamino)-3,4-dioxo-1-phenylbutan-2-yl)-1-(5-phenylpyrimidin-2-yl)-1H-imidazole-5-carboxamide], for which the IC50 at Human Calpain 1/NS1 (Column A) is less than 3 µM; on Human Calpain 9/NS1 (Column C) it was 3 to 10 µM; at Human Calpain 2/NS1 (Column B), less than 3 µM.

Turning to `Cn1cc(C(=O)NC(Cc2ccccc2)C(=O)C(N)=O)c(-c2n[nH]c3ccccc23)n1` (stereo not drawn) [Compound 482, N-(4-amino-3,4-dioxo-1-phenylbutan-2-yl)-3-(1H-indazol-3-yl)-1-methyl-1H-pyrazole-4-carboxamide], the results for the IC50 on Human Calpain 1/NS1, on Human Calpain 9/NS1 and at Human Calpain 2/NS1 were 3 to 10 µM, less than 3 µM and 3 to 10 µM, respectively.

Take `Cc1cc(C(=O)N[C@@H](Cc2ccccc2)C(=O)C(N)=O)n(-c2nc3c(C)cccc3s2)n1` [Compound 298, (S)—N-(4-amino-3,4-dioxo-1-phenylbutan-2-yl)-3-methyl-1-(4-methylbenzo[d]thiazol-2-yl)-1H-pyrazole-5-carboxamide]: the IC50 on Human Calpain 1/NS1 (Column A), on Human Calpain 9/NS1 (Column C) and at Human Calpain 2/NS1 (Column B) was greater than 10 µM each time.

Regarding `Cc1noc(-c2ccccc2)c1C(=O)N[C@@H](Cc1ccccc1)C(=O)C(=O)NCc1cccc(S(C)(=O)=O)c1` [Compound 152, (s)-3-methyl-N-(4-((3-(methylsulfonyl)benzyl)amino)-3,4-dioxo-1-phenylbutan-2-yl)-5-phenylisoxazole-4-carboxamide], the IC50 on Human Calpain 1/NS1 (Column A), at Human Calpain 9/NS1 (Column C) and at Human Calpain 2/NS1 (Column B) was less than 3 µM each time.

With `C=CCOc1ccc(C[C@@H](C=O)NC(=O)c2cc(C)nn2-c2ccccn2)cc1` [Compound 93, (S)—N-(1-(4-(allyloxy)phenyl)-3-oxopropan-2-yl)-3-methyl-1-(pyridin-2-yl)-1H-pyrazole-5-carboxamide], the IC50 on Human Calpain 1/NS1 (Column A), at Human Calpain 9/NS1 (Column C) and at Human Calpain 2/NS1 (Column B) was less than 3 µM each time.

Regarding `Cc1cc(C(=O)N[C@@H](Cc2ccccc2)C(=O)C(N)=O)n(-c2nccc3ccccc23)n1` [Compound 119, (S)—N-(4-amino-3,4-dioxo-1-phenylbutan-2-yl)-1-(isoquinolin-1-yl)-3-methyl-1H-pyrazole-5-carboxamide], the IC50 on Human Calpain 1/NS1 (Column A), at Human Calpain 9/NS1 (Column C) and on Human Calpain 2/NS1 (Column B) was less than 3 µM each time.

As for `CCn1ncc(Cl)c1C(=O)N[C@@H](Cc1ccccc1)C(=O)C(N)=O` [Compound 311, (S)—N-(4-amino-3,4-dioxo-1-phenylbutan-2-yl)-4-chloro-1-ethyl-1H-pyrazole-5-carboxamide], the IC50 at Human Calpain 1/NS1, at Human Calpain 9/NS1 and on Human Calpain 2/NS1 was less than 3 µM throughout.

`Cn1ncc(C(=O)N[C@@H](Cc2ccccc2)C(=O)C(N)=O)c1-c1cccc(C(F)(F)F)n1` [Compound 194, (S)—N-(4-amino-3,4-dioxo-1-phenylbutan-2-yl)-1-methyl-5-(6-(trifluoromethyl)pyridin-2-yl)-1H-pyrazole-4-carboxamide]: the IC50 on Human Calpain 1/NS1 (Column A), on Human Calpain 9/NS1 (Column C) and on Human Calpain 2/NS1 (Column B) was less than 3 µM each time.
